Active and inactive are the calls of the source.
Columns and labels:
[1] = Fluorescence-based cell-based high throughput dose response assay for inhibitors of the interaction of nucleotide-binding oligomerization domain containing 2 (NOD2) and the receptor-interacting serine-threonine kinase 2 (RIPK2).; format: functional; conditions: Homo sapiens
Fatty acid synthase [2] = biological target: T1, Fatty acid synthase (Homo sapiens, UniProt P49327); test: FAS thioesterase domain inhibitors, dose response, biochemical, kinetic fluorescence intensity (AID 624326); format: functional;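 also: rate of fluorescence rise from hydrolysis of a fluorogenic O-methyl fluorescein ester substrate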
T1 sequence (P49327 whole entry, the tested form may be a part): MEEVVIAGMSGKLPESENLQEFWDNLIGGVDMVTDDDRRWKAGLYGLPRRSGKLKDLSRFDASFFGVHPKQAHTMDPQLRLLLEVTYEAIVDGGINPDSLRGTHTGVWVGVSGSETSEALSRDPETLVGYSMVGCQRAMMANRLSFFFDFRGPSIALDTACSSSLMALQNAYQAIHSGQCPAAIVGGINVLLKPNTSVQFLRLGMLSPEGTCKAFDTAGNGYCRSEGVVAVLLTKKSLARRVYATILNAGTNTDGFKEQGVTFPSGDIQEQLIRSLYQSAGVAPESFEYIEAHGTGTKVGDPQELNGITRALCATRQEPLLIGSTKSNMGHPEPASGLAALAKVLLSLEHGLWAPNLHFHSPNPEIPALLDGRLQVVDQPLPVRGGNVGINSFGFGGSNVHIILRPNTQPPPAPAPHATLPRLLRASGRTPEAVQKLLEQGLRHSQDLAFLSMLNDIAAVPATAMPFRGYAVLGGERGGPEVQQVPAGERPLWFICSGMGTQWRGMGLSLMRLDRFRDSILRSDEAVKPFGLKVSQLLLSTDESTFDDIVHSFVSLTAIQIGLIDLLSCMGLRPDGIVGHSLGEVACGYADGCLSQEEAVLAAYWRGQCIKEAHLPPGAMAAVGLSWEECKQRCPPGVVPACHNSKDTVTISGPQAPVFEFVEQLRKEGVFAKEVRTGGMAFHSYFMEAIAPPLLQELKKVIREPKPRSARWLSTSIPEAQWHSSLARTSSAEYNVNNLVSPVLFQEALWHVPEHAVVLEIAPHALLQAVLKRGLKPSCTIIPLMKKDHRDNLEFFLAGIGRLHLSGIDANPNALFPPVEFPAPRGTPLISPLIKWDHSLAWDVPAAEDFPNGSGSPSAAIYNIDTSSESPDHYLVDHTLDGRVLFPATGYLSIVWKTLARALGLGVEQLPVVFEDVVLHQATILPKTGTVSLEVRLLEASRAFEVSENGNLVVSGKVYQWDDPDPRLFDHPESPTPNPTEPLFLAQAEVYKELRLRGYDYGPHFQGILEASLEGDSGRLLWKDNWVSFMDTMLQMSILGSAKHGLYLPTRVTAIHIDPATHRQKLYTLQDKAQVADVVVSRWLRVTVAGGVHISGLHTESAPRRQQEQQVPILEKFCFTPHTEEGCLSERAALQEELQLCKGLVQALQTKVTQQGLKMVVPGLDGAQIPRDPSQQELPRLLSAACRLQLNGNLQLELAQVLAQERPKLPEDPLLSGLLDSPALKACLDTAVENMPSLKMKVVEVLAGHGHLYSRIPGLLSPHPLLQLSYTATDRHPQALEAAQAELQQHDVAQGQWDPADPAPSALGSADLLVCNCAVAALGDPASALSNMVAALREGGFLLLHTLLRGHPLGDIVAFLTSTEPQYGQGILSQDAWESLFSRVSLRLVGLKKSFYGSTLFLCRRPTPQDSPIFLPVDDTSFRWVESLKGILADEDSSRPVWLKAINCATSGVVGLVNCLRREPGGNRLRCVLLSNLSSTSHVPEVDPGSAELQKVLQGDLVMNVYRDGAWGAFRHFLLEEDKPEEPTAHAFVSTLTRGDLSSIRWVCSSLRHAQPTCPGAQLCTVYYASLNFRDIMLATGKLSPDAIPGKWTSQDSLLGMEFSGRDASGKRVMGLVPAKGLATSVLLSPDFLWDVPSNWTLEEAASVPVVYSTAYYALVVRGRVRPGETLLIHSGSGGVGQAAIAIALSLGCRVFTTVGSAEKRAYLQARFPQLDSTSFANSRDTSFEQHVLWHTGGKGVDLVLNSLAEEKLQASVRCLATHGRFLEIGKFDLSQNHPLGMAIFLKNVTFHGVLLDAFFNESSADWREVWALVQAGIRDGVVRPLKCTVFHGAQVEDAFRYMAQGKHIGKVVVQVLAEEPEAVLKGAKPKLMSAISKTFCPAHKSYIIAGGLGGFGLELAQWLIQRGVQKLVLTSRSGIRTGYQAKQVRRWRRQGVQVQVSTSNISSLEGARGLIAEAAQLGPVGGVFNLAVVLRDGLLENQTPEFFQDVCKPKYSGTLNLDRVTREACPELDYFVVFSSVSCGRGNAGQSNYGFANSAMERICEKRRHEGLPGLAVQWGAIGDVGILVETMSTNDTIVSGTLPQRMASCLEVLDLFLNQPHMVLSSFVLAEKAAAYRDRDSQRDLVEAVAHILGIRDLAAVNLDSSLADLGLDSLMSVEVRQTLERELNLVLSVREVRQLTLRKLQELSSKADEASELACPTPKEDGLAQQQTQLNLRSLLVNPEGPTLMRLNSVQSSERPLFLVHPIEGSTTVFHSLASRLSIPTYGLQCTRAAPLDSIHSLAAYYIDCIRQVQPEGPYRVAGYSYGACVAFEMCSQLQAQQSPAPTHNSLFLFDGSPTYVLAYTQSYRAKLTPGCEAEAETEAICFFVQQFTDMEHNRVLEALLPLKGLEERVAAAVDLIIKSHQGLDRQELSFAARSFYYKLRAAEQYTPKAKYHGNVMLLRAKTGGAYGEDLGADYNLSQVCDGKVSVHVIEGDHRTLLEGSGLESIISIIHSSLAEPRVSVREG

Protein RecA = biological target: T2, Protein RecA (Mycobacterium tuberculosis, UniProt P9WHJ3); test: Fluorescence Cell-Free Homogeneous Dose Retest to Identify Inhibitors of RecA-Intein Splicing Activity. [Related pubchem assays (depositor defined):AID2097, AID2223, AID489010, AID492950]; format: functional
T2 sequence (P9WHJ3 whole entry): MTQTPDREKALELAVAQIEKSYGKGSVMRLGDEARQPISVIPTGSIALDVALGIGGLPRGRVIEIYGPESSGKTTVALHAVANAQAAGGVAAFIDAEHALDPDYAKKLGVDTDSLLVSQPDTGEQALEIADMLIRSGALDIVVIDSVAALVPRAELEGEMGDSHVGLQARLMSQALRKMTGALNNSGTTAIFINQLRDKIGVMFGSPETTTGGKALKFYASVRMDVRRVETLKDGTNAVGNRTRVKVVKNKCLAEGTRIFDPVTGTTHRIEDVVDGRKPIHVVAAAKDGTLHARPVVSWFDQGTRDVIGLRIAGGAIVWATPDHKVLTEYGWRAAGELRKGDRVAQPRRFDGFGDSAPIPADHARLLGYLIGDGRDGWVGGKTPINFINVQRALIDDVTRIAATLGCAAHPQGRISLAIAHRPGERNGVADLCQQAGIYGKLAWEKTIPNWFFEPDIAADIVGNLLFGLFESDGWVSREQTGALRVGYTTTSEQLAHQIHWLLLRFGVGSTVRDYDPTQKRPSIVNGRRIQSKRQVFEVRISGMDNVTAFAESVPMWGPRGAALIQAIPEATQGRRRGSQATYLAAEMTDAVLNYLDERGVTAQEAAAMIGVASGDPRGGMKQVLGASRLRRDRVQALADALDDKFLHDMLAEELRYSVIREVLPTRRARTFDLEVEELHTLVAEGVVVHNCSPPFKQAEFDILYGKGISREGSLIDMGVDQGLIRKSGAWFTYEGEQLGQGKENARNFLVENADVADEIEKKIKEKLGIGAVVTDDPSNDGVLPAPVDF

Beta Lactamase = Beta Lactamase (Pseudomonas aeruginosa, UniProt Q932Y6); test: beta-lactamase reporter inhibitor potency, dose response, artefact control for NOD2-RIPK2 interaction inhibitor project, BLA reporter cells, FRET fluorescence (AID 651552); format: functional, cell-based
Sequence of Beta Lactamase (Q932Y6 whole entry): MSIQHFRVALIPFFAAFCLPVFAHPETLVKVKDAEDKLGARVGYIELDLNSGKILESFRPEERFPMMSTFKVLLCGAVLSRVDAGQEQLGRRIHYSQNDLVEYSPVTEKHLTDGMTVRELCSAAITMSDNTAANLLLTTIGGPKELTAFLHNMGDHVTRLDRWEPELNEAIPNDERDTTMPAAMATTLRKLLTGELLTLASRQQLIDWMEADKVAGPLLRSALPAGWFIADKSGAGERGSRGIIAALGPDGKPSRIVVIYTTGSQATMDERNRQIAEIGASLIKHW

[3] = biological target: T3, Replicative DNA helicase DnaB (Mycobacterium tuberculosis, UniProt P9WMR3); test: DnaB intein splicing inhibitors, dose response, biochemical, cell-free fluorescence (AID 449749); format: functional
T3 sequence (P9WMR3 whole entry): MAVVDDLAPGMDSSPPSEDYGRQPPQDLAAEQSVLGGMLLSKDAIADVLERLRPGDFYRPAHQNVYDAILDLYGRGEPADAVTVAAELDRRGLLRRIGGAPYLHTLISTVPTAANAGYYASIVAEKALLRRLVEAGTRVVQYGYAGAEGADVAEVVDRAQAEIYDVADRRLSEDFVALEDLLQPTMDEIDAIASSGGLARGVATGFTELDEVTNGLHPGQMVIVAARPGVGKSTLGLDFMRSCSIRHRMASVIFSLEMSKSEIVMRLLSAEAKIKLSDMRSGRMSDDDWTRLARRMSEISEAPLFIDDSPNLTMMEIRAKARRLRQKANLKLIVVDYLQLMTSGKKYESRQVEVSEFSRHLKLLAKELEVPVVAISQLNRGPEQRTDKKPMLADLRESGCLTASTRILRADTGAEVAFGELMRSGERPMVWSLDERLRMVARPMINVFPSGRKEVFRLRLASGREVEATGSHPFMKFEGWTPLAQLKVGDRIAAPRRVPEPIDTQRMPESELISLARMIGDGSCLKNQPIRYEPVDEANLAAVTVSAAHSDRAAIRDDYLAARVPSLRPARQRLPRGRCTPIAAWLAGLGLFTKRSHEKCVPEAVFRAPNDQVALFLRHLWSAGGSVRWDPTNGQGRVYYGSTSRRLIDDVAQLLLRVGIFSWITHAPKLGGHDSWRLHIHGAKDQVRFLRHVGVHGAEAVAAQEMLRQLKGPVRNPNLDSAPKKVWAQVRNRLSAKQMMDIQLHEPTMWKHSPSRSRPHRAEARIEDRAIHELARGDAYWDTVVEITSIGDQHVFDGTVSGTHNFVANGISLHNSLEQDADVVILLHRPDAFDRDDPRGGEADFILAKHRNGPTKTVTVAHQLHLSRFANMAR

Fatty acid synthase [4] = biological target: T1, Fatty acid synthase; test: FAS thioesterase domain inhibitors, dose response, biochemical, endpoint fluorescence intensity, uHTS hits (AID 624327); format: functional;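 also: fluorescence from hydrolysis of an O-methyl fluorescein acyl ester substrate by the enzyme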
[5] = biological target: Heat shock protein HSP 90-alpha (Homo sapiens, UniProt P07900); format: functional, organism-based
[6] = C. albicans growth with fluconazole, confirmation, fluorescence, retest (AID 2467); format: functional, cell-based
[7] = HEp-2 cell cytotoxicity, dose response, cytotoxicity control for RSV inhibitor project, HTS (AID 2410); format: functional; conditions: human respiratory syncytial virus
[8] = biological target: T4, Sphingosine 1-phosphate receptor 4 (Homo sapiens, UniProt O95977); test: Fluorescence dose response cell-based high throughput screening assay for antagonists of the Sphingosine 1-Phosphate Receptor 4 (S1P4). [Related pubchem assays: 1524 (Confirmation in triplicates.), 1510 (Primary screen.)]; format: functional
T4 sequence (O95977 whole entry): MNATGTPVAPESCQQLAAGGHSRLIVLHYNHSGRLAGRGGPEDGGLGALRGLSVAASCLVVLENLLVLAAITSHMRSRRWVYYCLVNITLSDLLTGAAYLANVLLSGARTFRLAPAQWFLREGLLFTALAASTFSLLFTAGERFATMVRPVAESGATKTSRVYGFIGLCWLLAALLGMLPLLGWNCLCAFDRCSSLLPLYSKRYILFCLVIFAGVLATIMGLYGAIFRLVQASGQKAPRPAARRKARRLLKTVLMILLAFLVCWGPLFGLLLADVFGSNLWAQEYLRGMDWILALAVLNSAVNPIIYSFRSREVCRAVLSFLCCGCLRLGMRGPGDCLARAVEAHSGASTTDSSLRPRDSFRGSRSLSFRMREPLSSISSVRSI

[9] = NIH-3T3 fibroblast cytotoxicity, dose response, cytotoxicity control, cell-based, fluorescence, Alamar Blue, secondary assay (AID 2327); format: functional;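 also: NIH-3T3 mouse fibroblasts cultured with fluconazole at 8 µg/mL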
[10] = biological target: T4, Sphingosine 1-phosphate receptor 4; test: Late stage fluorescence dose response cell-based screening assay for antagonists of the Sphingosine 1-Phosphate Receptor 4 (S1P4). [Related pubchem assays: 1524 (Confirmation screen (S1P4 antagonists).), 1510 (Primary screen (S1P4 antagonists).), 1853 (Summary AID (S1P4 antagonists).), 1692 (Dose response screen (S1P4 antagonists).)]; format: functional
[11] = biological target: Sphingosine 1-phosphate receptor 1 (Homo sapiens, UniProt P21453); format: functional;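 also: Tango beta-arrestin reporter U2OS cells stimulated with S1P near its EC80; inhibitor potency meaning antagonism of receptor activation by the natural agonist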
Sequence of Sphingosine 1-phosphate receptor 1 (P21453 whole entry): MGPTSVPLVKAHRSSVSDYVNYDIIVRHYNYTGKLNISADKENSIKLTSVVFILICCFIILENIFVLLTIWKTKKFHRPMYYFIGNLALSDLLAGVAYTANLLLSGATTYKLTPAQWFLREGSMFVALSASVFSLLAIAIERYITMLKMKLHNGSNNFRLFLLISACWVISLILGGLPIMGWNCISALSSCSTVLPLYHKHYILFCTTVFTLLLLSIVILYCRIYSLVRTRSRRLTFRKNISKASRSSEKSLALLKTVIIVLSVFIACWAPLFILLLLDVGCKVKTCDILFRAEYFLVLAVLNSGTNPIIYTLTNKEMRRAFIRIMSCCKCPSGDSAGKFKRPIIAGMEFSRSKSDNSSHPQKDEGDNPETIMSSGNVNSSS

Danio rerio = test: In Vivo Angiogenesis Dose-Response Confirmation. [Related pubchem assays: 732 (Assay preceding this confirmatory assay.)]; format: functional, organism-based
[12] = M. tuberculosis H37Rv growth inhibitors, H37Rv strain (AID 1626); format: functional
[13] = A cytotoxicity screen of small molecule inhibitors of the PhoP region in Salmonella typhi identified in the primary screen. [Related pubchem assays: 1850, 1864, 1985 ]; format: functional
[14] = biological target: T5, Polyadenylate-binding protein 1 (Homo sapiens, UniProt P11940); test: PABP1 MLLE–PAM2 interaction inhibitors, dose response, miRNA deadenylation inhibitor project, biochemical, fluorescence polarization, Cy5-PAM2 peptide, secondary (AID 602260); format: functional; conditions: read-out: IC50_Mean
T5 sequence (P11940 whole entry): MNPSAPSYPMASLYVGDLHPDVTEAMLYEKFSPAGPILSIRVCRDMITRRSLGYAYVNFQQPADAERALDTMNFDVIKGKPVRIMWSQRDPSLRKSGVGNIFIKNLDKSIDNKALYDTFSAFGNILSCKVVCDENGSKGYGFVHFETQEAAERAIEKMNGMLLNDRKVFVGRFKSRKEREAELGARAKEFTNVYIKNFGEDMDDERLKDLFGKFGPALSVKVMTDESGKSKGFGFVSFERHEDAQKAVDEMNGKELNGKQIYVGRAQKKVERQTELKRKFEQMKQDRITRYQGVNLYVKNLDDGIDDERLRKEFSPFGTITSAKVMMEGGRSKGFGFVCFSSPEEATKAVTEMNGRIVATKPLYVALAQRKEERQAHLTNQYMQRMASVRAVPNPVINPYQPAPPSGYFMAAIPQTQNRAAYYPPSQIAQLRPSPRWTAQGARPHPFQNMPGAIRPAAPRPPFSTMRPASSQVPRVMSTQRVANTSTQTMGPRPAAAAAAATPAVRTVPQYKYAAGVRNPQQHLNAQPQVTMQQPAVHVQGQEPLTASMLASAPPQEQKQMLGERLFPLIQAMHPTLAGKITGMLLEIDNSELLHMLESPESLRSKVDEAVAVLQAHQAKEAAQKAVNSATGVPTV

[15] = biological target: T5, Polyadenylate-binding protein 1; test: PABP1 MLLE–PAM2 binding inhibitor potency, dose response, biochemical, fluorescence polarization, FITC-PAM2 peptide (AID 602259); format: functional; conditions: read-out: IC50_Mean
[16] = biological target: Protein-tyrosine kinase 2-beta (Homo sapiens, UniProt Q14289);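 also: potency of inhibitors of PYK2 kinase phosphorylation of poly-GT substrate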
Sequence of Protein-tyrosine kinase 2-beta (Q14289 whole entry): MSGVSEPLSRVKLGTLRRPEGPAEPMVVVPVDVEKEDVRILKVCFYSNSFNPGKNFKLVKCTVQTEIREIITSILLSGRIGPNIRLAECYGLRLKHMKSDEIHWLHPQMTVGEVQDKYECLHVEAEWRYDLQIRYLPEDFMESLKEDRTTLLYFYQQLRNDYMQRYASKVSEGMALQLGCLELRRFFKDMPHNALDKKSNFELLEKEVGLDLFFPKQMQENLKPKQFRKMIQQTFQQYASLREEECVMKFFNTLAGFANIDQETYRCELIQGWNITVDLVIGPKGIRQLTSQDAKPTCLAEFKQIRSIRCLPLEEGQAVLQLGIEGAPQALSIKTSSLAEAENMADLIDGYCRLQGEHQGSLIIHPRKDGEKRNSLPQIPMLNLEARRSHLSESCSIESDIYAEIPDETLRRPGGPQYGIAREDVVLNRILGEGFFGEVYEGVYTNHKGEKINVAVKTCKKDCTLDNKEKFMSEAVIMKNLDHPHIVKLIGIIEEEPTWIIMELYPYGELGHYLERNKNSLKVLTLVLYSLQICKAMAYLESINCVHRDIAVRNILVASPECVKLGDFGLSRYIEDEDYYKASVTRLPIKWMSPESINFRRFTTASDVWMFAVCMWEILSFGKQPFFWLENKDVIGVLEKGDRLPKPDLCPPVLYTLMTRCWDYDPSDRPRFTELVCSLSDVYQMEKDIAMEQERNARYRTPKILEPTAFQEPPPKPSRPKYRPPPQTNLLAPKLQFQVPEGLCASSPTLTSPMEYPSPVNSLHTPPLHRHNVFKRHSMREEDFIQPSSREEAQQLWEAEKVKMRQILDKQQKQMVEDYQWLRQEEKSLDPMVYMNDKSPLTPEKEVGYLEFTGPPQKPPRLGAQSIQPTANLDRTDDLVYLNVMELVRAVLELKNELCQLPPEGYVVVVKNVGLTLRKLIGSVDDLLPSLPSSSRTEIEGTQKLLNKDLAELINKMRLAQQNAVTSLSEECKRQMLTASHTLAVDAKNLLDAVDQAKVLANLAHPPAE

Question: Which results are given for `O=C(Nc1ccccc1)c1nnsc1S(=O)(=O)c1ccc(Cl)cc1`?
Answer: IC50 [1]: 3.5 µM (active); IC50 (Fatty acid synthase [2]): 5.14 µM (active); EC50 (Protein RecA): 5.71 µM (active); IC50 (Beta Lactamase): 18.8 µM (inactive); AC50 [3]: 3.53 µM (active); IC50 (Fatty acid synthase [4]): 8 µM (active); AC50 [5]: 0.293 µM (active); EC50 [6]: > 38 µM (not active); CC50 [7]: 13.4 µM (active); IC50 [8]: 1.04 µM (active); EC50 [9]: 9.03 µM (active); IC50 [10]: 11.2 µM (not active); IC50 [11]: 23.4 µM (not active)

Question: For `Cc1ccc2c(c1)/C(=C1/Nc3ccc(Br)cc3/C1=N\OCCN1CCNCC1)C(=O)N2`, which IC50 (Danio rerio) is on record?
Answer: 3.28 µM (not active)

Question: With `Cc1cc(C(=O)Cn2cncn2)c(C)n1CCc1ccc(F)cc1` as the compound, how does the IC50 [12] read?
Answer: > 100 µM (active)

Question: What about the EC50 [13] of the same compound?
Answer: > 50 µM (active)

Question: For `CCOC(=O)CSc1nc(C2CC2)nc2ccccc12`, which IC50 [14] is on record?
Answer: > 66 µM (inactive)

Question: What about the IC50 [15] of the same compound?
Answer: > 66 µM (inactive)

Question: And the IC50 [16]?
Answer: > 69.5 µM (not active)

From ChEMBL document CHEMBL1201862, “PubChem BioAssay data set” (2004)
